Assay results: patent US9120805B2, “Substituted pyrrolo[1,2-A]pyrazin-1-ones and pyrazolo[1,5-A]pyrazin-4-ones as inhibitors of tankyrase and poly(ADP-ribose)polymerase activity” (Merck Patent GmbH, priority 2012, dated 2015)

Assays:
[1] = target: T1, GST-tagged Tankyrase-1 (1023-1327 aa) (Homo sapiens, UniProt O95271); assay: Tankyrase 1 autoparsylation assay (HTRF enzyme assay); format: biochemical
T1 construct: GST-tagged Tankyrase-1 (1023-1327 aa)
In short: (§1)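 ~250 nM GST-tagged enzyme with 5 μM biotin-NAD in HEPES/Mg/DTT buffer pH 7.7, 10 compound concentrations, 90 min at 30 °C; EDTA stop. Eu-anti-GST/streptavidin-Xlent HTRF read (665/615 ratio) after 1 h RT. IC50 relative to inhibitor-free reaction and 5 μM XAV-939 as zero.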

[2] = tested on: tankyrase 1/2; assay: Cellular inhibition of Tankyrase: increase of Axin2 level in DLD1 cells (Luminex); format: cell-based; details: 24 hours, read-out: EC50 tankyrase 1/2 (cell assay)
In short: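 DLD1 colon carcinoma cells treated 24 h with seven-step serial dilutions in triplicate (0.3% DMSO final). Axin2 in cleared lysates captured on anti-Axin2 beads, detected with polyclonal anti-Axin2 plus PE secondary, and quantified by Luminex. EC50 from data normalized to solvent control; IWR-2 (3E-06 M) marks maximal Axin2 increase.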

[3] = target: T2, GST-tagged Tankyrase-2 (873-1166 aa) (Homo sapiens, UniProt Q9H2K2); assay: Tankyrase 2 autoparsylation assay (HTRF enzyme assay); format: biochemical
T2 construct: GST-tagged Tankyrase-2 (873-1166 aa)
In short: as §1

T1 sequence (O95271 1023-1327): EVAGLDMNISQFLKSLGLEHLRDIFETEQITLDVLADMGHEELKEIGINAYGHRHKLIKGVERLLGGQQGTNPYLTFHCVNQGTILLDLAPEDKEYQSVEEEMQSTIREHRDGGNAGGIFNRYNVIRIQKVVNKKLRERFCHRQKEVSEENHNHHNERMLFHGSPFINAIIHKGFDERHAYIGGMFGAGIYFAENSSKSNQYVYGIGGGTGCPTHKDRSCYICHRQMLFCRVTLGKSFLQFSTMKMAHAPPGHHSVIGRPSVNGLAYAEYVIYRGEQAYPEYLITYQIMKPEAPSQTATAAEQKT
T2 sequence (Q9H2K2 873-1166): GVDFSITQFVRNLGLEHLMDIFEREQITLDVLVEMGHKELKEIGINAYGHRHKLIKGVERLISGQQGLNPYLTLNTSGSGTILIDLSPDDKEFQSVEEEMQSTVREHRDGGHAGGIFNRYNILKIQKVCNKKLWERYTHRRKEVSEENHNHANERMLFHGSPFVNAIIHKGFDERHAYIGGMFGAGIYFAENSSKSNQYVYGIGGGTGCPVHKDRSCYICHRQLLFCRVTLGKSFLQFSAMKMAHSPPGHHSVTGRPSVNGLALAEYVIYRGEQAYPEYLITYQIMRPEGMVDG

For `CC(C)(C)c1ccc(-c2cn3cccc3c(=O)[nH]2)cc1` [Compound A11, 3-(4-tert-butyl-phenyl)-2H-pyrrolo[1,2-a]pyrazin-1-one], the IC50 [1] was under 0.3 µM, the EC50 [2] was under 0.3 µM and the IC50 [3] was under 0.3 µM.
Work on `Cc1ccc(-c2cn3cccc3c(=O)[nH]2)cc1` [Compound A12, 3-p-tolyl-2H-pyrrolo[1,2-a]pyrazin-1-one] yielded an IC50 [1] of under 0.3 µM, an EC50 [2] of 0.3 to 3 µM and an IC50 [3] of 0.3 to 3 µM.
With `Cn1cc(-c2ccc(-c3cn4cccc4c(=O)[nH]3)cc2)cn1` [Compound A25, 3-[4-(1-methyl-1H-pyrazol-4-yl)-phenyl]-2H-pyrrolo[1,2-a]pyrazin-1-one] the IC50 [1] was under 0.3 µM, the EC50 [2] was under 0.3 µM and the IC50 [3] was under 0.3 µM.
Compound `CC(C)(O)c1ccc(-c2cn3cccc3c(=O)[nH]2)cc1` [Compound A29, 3-[4-(1-hydroxy-1-methyl-ethyl)-phenyl]-2H-pyrrolo[1,2-a]pyrazin-1-one] has an IC50 [1] of under 0.3 µM, an EC50 [2] of under 0.3 µM and an IC50 [3] of under 0.3 µM.
`CC(C)(C)c1ccc(-c2cn3cc(F)cc3c(=O)[nH]2)cc1` [Compound A35, 3-(4-tert-butyl-phenyl)-7-fluoro-2H-pyrrolo[1,2-a]pyrazin-1-one] showed an IC50 [1] of under 0.3 µM, an EC50 [2] of under 0.3 µM and an IC50 [3] of under 0.3 µM.
With `Cc1cc2c(=O)[nH]c(-c3ccc(C(C)(C)O)cc3)cn2n1` [Compound A46, 6-[4-(1-hydroxy-1-methyl-ethyl)phenyl]-2-methyl-5H-pyrazolo[1,5-a]pyrazin-4-one] the IC50 [1] was under 0.3 µM, the EC50 [2] was 0.3 to 3 µM and the IC50 [3] was 0.3 to 3 µM.
`Cc1cc2c(=O)[nH]c(-c3ccc(C(C)(C)O)cc3)cn2c1` [Compound A56, 3-[4-(1-hydroxy-1-methyl-ethyl)-phenyl]-7-methyl-2H-pyrrolo[1,2-a]pyrazin-1-one] gave an IC50 [1] of under 0.3 µM, an EC50 [2] of under 0.3 µM and an IC50 [3] of 0.3 to 3 µM.
For `CC(C)(O)c1ccc(-c2cn3cc(F)cc3c(=O)[nH]2)cc1` [Compound A59, 7-fluoro-3-[4-(1-hydroxy-1-methyl-ethyl)-phenyl]-2H-pyrrolo[1,2-a]pyrazin-1-one], the IC50 [1] was under 0.3 µM, the EC50 [2] was under 0.3 µM and the IC50 [3] was under 0.3 µM.
`CC(C)(O)c1ccc(-c2cn3cc(Cl)cc3c(=O)[nH]2)cc1` [Compound A60, 7-chloro-3-[4-(1-hydroxy-1-methyl-ethyl)-phenyl]-2H-pyrrolo[1,2-a]pyrazin-1-one] gave an IC50 [1] of under 0.3 µM, an EC50 [2] of under 0.3 µM and an IC50 [3] of under 0.3 µM.
`CCC(O)(CC)c1ccc(-c2cn3cc(F)cc3c(=O)[nH]2)cc1` [Compound A61, 3-[4-(1-ethyl-1-hydroxy-propyl)-phenyl]-7-fluoro-2H-pyrrolo[1,2-a]pyrazin-1-one] gave an IC50 [1] of under 0.3 µM, an EC50 [2] of under 0.3 µM and an IC50 [3] of under 0.3 µM.
Work on `CC(C)(F)c1ccc(-c2cn3cc(F)cc3c(=O)[nH]2)cc1` [Compound A63, 7-fluoro-3-[4-(1-fluoro-1-methyl-ethyl)-phenyl]-2H-pyrrolo[1,2-a]pyrazin-1-one] yielded an IC50 [1] of under 0.3 µM, an EC50 [2] of under 0.3 µM and an IC50 [3] of 0.3 to 3 µM.
For `CC(C)(OCCO)c1ccc(-c2cn3cc(F)cc3c(=O)[nH]2)cc1` [Compound A70, 7-fluoro-3-{4-[1-(2-hydroxy-ethoxy)-1-methyl-ethyl]-phenyl}-2H-pyrrolo[1,2-a]pyrazin-1-one], the IC50 [1] was under 0.3 µM, the EC50 [2] was under 0.3 µM and the IC50 [3] was under 0.3 µM.
In the case of `COCCOC(C)(C)c1ccc(-c2cn3cc(F)cc3c(=O)[nH]2)cc1` [Compound A71, 7-fluoro-3-{4-[1-(2-methoxy-ethoxy)-1-methyl-ethyl]-phenyl}-2H-pyrrolo[1,2-a]pyrazin-1-one], the IC50 [1] is reported as under 0.3 µM, the EC50 [2] is reported as 0.3 to 3 µM and the IC50 [3] is reported as 0.3 to 3 µM.
With `CC(C)(N)c1ccc(-c2cn3cc(F)cc3c(=O)[nH]2)cc1` [Compound A72, 3-[4-(1-amino-1-methyl-ethyl)-phenyl]-7-fluoro-2H-pyrrolo[1,2-a]pyrazin-1-one] the IC50 [1] was under 0.3 µM, the EC50 [2] was 3 to 50 µM and the IC50 [3] was under 0.3 µM.
With `CC1(c2ccc(-c3cn4cc(F)cc4c(=O)[nH]3)cc2)CCCO1` (stereo not drawn) [Compound A73, 7-fluoro-3-[4-(2-methyl-tetrahydro-furan-2-yl)-phenyl]-2H-pyrrolo[1,2-a]pyrazin-1-one] the IC50 [1] was under 0.3 µM, the EC50 [2] was under 0.3 µM and the IC50 [3] was under 0.3 µM.
For `O=c1[nH]c(-c2ccc(C3CCNCC3)cc2)cn2cccc12` [Compound A75, 3-(4-piperidin-4-yl-phenyl)-2H-pyrrolo[1,2-a]pyrazin-1-one], the IC50 [1] was under 0.3 µM, the EC50 [2] was 0.3 to 3 µM and the IC50 [3] was under 0.3 µM.
Compound `O=c1[nH]c(-c2ccc(C3CCNC3)cc2)cn2cccc12` (stereo not drawn) [Compound A76, 3-(4-Pyrrolidin-3-yl-phenyl)-2H-pyrrolo[1,2-a]pyrazin-1-one] has an IC50 [1] of under 0.3 µM, an EC50 [2] of 0.3 to 3 µM and an IC50 [3] of 0.3 to 3 µM.
With `CN1CCC(c2ccc(-c3cn4cccc4c(=O)[nH]3)cc2)CC1` [Compound A79, 3-[4-(1-methyl-piperidin-4-yl)-phenyl]-2H-pyrrolo[1,2-a]pyrazin-1-one] the IC50 [1] was under 0.3 µM, the EC50 [2] was 3 to 50 µM and the IC50 [3] was under 0.3 µM.
In the case of `CN1CCC(c2ccc(-c3cn4cccc4c(=O)[nH]3)cc2)C1` (stereo not drawn) [Compound A80, 3-[4-(1-methyl-pyrrolidin-3-yl)-phenyl]-2H-pyrrolo[1,2-a]pyrazin-1-one], the IC50 [1] is reported as 0.3 to 3 µM, the EC50 [2] is reported as 3 to 50 µM and the IC50 [3] is reported as 0.3 to 3 µM.
In the case of `O=c1[nH]c(-c2ccc(C3(O)CCC3)cc2)cn2cccc12` [Compound A111], the IC50 [1] is reported as under 0.3 µM, the EC50 [2] is reported as under 0.3 µM and the IC50 [3] is reported as under 0.3 µM.
